Experimental data published in US10377729B2, “Bis-furan derivatives as transthyretin (TTR) stabilizers and amyloid inhibitors for the treatment of familial amyloid polyneuropathy (FAP)” (BSIM Therapeutics, S.A., priority 2015, dated 2019).
Values joined by “and” are separate entries in the source; they are usually repeats but may differ in a detail not shown here. Equal entries are not always repeated. “Also recorded” adds a separate entry of the source. Where two headings read alike, the source gives them in different places.

How the values were obtained:
[1] = system: familial amyloid polyneuropathy (FAP) patients; settings: 18-month phase-III clinical trial; cited from earlier work
[2] = system: TTR in human plasma (versus albumin and thyroxine-binding globulin); test: Ex vivo thyroxine ([125I]-T4) competition assay in human plasma (native PAGE); settings: FIG. 9 A; for displacement of T4 from TTR / binding affinity for TTR (increasing order, in words): heterozygotic TTR V30M carriers and normal subjects, B
Experimental: After electrophoresis, the gels are dried, subjected to phosphor imaging (Typhoon 8600; […], Amersham Biosciences), and analysed using the ImageQuant program version 5.1. The intensity of the protein bands is compared. Two or three bands of different intensity should be visualized in plasma samples.
The results are analyzed by calculation of the TTR/total (TTR+ALB+TBG) ratio for each sample.

[3] = biological target: wild type TTR in human plasma (Homo sapiens (Human), UniProt P02766); test: Ex vivo TTR stability to dissociation assay (IEF, 4 M urea), plasma of normal subjects; type: biochemical; settings: wild type TTR plasmas, 5 samples, IEF densitometry
Experimental: (§1) In an embodiment, the AT09-B00 compound was further tested ex vivo for its effect on the stability of human plasma TTR, using isoelectric focusing (IEF) under semi-denaturating conditions, i.e. in the presence of 4 M of urea—as described in this disclosure and in references. After plasma incubation with the test and reference compounds, TTR was isolated by PAGE and run on IEF. Bands corresponding to different TTR species were quantified and the tetramer to total protein ratio was determined. Under the experimental conditions used, TTR presented a typical pattern of two main bands, representing monomers (normal and oxidized forms), and several bands of lower isoelectric point (pI) indicating different forms of TTR tetramers.
(§2) In an embodiment, ex vivo TTR stability assays were conducted. Plasma TTR stability to dissociation is assessed by isoelectric focusing (IEF) in semi-denaturing conditions of human plasma samples as described in references. To perform the assay, 30 μL of human plasma are incubated with 5 μL of a 10 mM solution of test compounds and control compounds overnight at 4° C. followed by a 1 hour incubation at room temperature. The samples are then subjected to native PAGE and the gel band containing TTR is excised and applied to an IEF gel. […] The results are expressed as the average ratio of TTR tetramer for over total TTR over 5 repetitions±the standard deviation.

TTR V30M in human plasma = TTR V30M in human plasma (Homo sapiens (Human), UniProt P02766, V30M); test: Ex vivo TTR stability to dissociation assay (IEF, 4 M urea), plasma of heterozygotic V30M carriers; type: biochemical; settings: plasmas of heterozygotic V30M carriers, 5 samples, IEF densitometry
Experimental: as §1, §2

AD/TTR+/− mice = settings: cited from earlier work
WT-TTR = WT-TTR (Homo sapiens (Human), UniProt P02766); test: Isothermal titration calorimetry (ITC) with WT-TTR; settings: 25° C., pH 7.2, 2% DMSO, model with two ligand-binding sites
Experimental: In an embodiment, Isothermal titration calorimetry (ITC) experiments were conducted to determine the binding constants of bis-furan compounds to TTR. […] An initial injection of 4 μL of titrant was followed by 28 regular injections of 10 μL until saturation of the titrated solution was reached. The heat associated with each injection was measured throughout time and calculated by integration of the area under the deflection of the measured peak, after baseline correction (i.e. subtraction of blank). Further details about the ITC experiments are provided herein.
The corresponding dissociation constants were calculated according to the equation given herein.
In an embodiment, the isothermal titration calorimetry (ITC) experiments were performed on a Malvern high precision VP-ITC titration calorimetry system (Malvern Instruments, Worcestershire, UK; previously from MicroCal). Compound stock solutions were prepared in pure DMSO. Both compound and WT-TTR dilutions were prepared in 20 mM sodium phosphate buffer, 150 mM sodium chloride and 2% DMSO, at pH 7.2. All solutions were filtered and degassed prior to use.
In an embodiment, in all titrations, the initial injection of 4 μL of titrant to the calorimetric cell was followed by 28 injections at regular intervals of 10 μL each, until saturation of the titrated solution was reached. […] The extent of binding was determined by direct measurement of the heat exchanged with the environment: the heat associated with each injection is proportional to the complex concentration and can be calculated by integrating the area under the deflection of the measured calorimetric signal. Data were analyzed with the Origin 7.0 software package from Malvern. A baseline correction was applied to each experiment by subtraction of data from injections of ligand solution into a buffer blank correlating to the heat of dilution of the ligand solution. For the calculation of the association constant (Ka), data analysis was performed according to a model of binding to a macromolecule with two ligand-binding sites, by non-linear regression. The reported dissociation constant (Kd) is the reciprocal of Ka, according to the equation ΔG=−RTInKa=RTInKd, where ΔG is the Gibbs free energy of binding, R is the gas constant and T is the temperature.

[4] = system: HepG2 cells (human liver carcinoma cell line); test: HepG2 cell viability assay (resazurin reduction); type: cell-based; settings: for toxicity for HepG2 cells (in words): 72 hours, even at high doses, FIG. 10; for ID50: HepG2, 72 hours of incubation
Experimental: In an embodiment, the toxicity profiling in HepG2 cell lines was evaluated. […] Further toxicology is required if AT09 compounds are to be progressed to subsequent stages of development, not only to discard potential liver damage (or toxicity to other organs/tissues) but also given the long-term nature of treatments required by patients suffering from TTR amyloidoses (such as FAP), associated co-morbidities, or other TTR-related pathologies.
In an embodiment, the HepG2 cell viability assay was conducted as follows:
Adherent human hepatoma cells HepG2 were cultured in DMEM (Dulbecco's Modified Eagle's Medium) with 10% fetal bovine serum (FBS), 100 U/mL penicillin, 100 μg/mL streptomycin, and 1 mM sodium pyruvate. The cells were grown in 75 cm^2 culture flasks at 37° C., in an atmosphere of 5% CO2, and subcultured twice a week using a trypsin-EDTA solution.
Upon 3-4 days of growth and reaching approximately 90-95% confluence, HepG2 cells were plated in 96-well microplates with cell density of 12×10^3 cells/well and in a volume of 100 μL per well.
In this assay, the compounds were dissolved in pure DMSO and subsequently diluted in DMEM (in 9 intermediate compound concentrations). After adhesion of HepG2 cells to the microplates, 100 μL of each solution of intermediate compound concentration was added to each well (in quadruplicate). Positive controls with 10 wells containing only cells were tested; solvent controls resulted from the analyses of the three highest DMSO concentrations tested and were carried out in triplicate.
After addition of the compounds to the cells, the microplates were incubated for approximately 72 hours at 37° C. in an atmosphere of 5% CO2 until the cell viability assay was performed.
The viability of HepG2 cells in the presence of test compounds was assessed by the resazurin reduction assay. A stock solution of 0.01% resazurin in PBS is diluted 1:10 in incomplete RPMI 1640 cell medium (without addition of antibiotics and FBS). After washing the cells with 200 μL PBS containing Ca^2+ and Mg^2+, 200 μL of 0.001% resazurin were added to the wells. Blanks with incomplete RPMI 1640 medium alone were done in triplicate. The microplates were incubated at 37° C. and 5% CO2 for approximately 2-4 hours.
To quantify the reduction of resazurin, microplate absorbance readings were taken at two wavelengths, 540 nm (reduced form) and 630 nm (oxidized form), in a microplate spectrophotometer (BioTek Instruments, Inc.). The percentage of viable cells at each compound concentration was determined using the equation % viable cells=[(ε630 nm×Abs540 nm)−(ε540 nm×Abs630 nm)]/[(ε630 nm×Ctrl540 nm)−(ε540 nm×Ctrl630 nm)]
where ε is the molar extinction coefficient, Abs is the absorbance and Ctrl is the absorbance of the positive control (cells without compound).

[5] = biological target: recombinant human wild-type TTR (WT-TTR) (Homo sapiens (Human), UniProt P02766); settings: for IEI (inhibition efficiency index): IEI = (pIC50/MW) × 1000; for ILE (inhibition lipophilic efficiency): ILE = pIC50 − cLogP; for inhibition of amyloid fibril formation by TTR (in words): compounds at 2×, 1× and 0.5× of WT-TTR (3.6 μM), 72 hours, FIG. 5; for pIC50: negative logarithm of IC50 values; for IC50: read-out: IC50 ± S.D. (concentration inhibiting TTR amyloid fibril formation by 50%), WT-TTR 3.6 μM, pH 4.4, 72 hours at 37° C., mean of at least 3 determinations
Experimental: In an embodiment, the TTR aggregation assay was conducted. […] In this assay, a solution of the test compound is added to a solution of TTR, so that the final concentration is 3.6 μM in protein (TTR) and 7.2, 3.6 and 1.8 μM in the test compound. At such concentrations, compounds may exert their activity through binding to one or both TTR binding sites. The pH of the resulting solution is then lowered to 4.4 to promote amyloidogenesis. The process of amyloid fibril formation over time is assessed by turbidity measurements at three different wavelengths, using a spectrophotometer endowed with a microplate reader.
In an embodiment, the extent of fibril formation of each mixture was normalized by comparison to a sample with protein (TTR) in absence of test compounds, which, at the end of 72 hours, represents 100% of amyloid fibril formation. In each experiment, each compound concentration was tested in triplicate. For each compound concentration, the arithmetic mean of the triplicate experiments was calculated, as well as the arithmetic mean of the three measured wavelengths.
In an embodiment, the IC50 determination assay was conducted. […] Ten different compound concentrations were used for each IC50 determination, while the protein concentration was kept constant at 3.6 μM (FIG. 6).
In an embodiment, the compound preparation for amyloid fibril formation assay was conducted as follows: compounds were prepared as 10.8 mM stock solutions in pure DMSO. Several dilutions in DMSO of the stock solution were made to provide secondary stock solutions. The concentrations were chosen depending on the efficacy of the compound in inhibiting the formation of TTR amyloid fibrils.
In an embodiment, the amyloid fibril formation assay used in this disclosure was based on the one presented in reference [46] and adapted to run in a 96-well microplate. For this purpose, 1 μL of different compound secondary stock solutions was added to 50 μL of a 7.2 μM WT-TTR solution in 10 mM sodium phosphate buffer, 100 mM KCl and 1 mM EDTA, pH 7.2, previously dialyzed against the same buffer solution. After 30 minutes of incubation at room temperature, the pH of the mixture was lowered to 4.4 with 49 μL of 200 mM acetate buffer, 100 mM KCl and 1 mM EDTA, pH 4.3. […] The mixtures were incubated at 37° C. for 72 hours.
In an embodiment, the turbidity at 405 nm, 450 nm and 490 nm (or 550, 600 and 650 nm when the compound absorbs at the previous wavelengths) was measured over time using a microplate spectrophotometer (BioTek Instruments, Inc. Winooski, Vt., USA) to evaluate the extent of fibril formation. Immediately before the turbidity measurements, the mixtures were gently shaken for 1 minute for homogenization but to avoid damaging the formed amyloid aggregates and fibrils. The final turbidity for each compound concentration tested in triplicate was calculated as an average of the three wavelengths measured. In addition, control samples containing TTR with no inhibitor and 1% DMSO, as well as inhibitor in absence of TTR, were tested and analyzed.
In an embodiment, the extent of amyloid fibril formation was compared to WT-TTR with no inhibitor, assigned to be 100% amyloid fibril formation (or 0% amyloid inhibition) at the end of the experiment.
IC50 values were determined by monitoring the effect of increasing concentrations of the compounds under test on the inhibition values. Ten different compound concentrations were used for each IC50 assay, along with a fixed WT-TTR concentration (3.6 μM).

## CNC[C@H](O)[C@@H](O)[C@H](O)[C@H](O)CO.O=C(O)c1ccc2nc(-c3cc(Cl)cc(Cl)c3)oc2c1 [Tafamidis meglumine, N-methyl D-(2,3,4,5,6-pentahydroxy-hexyl)-ammonium; 2-(3,5-dichloro-phenyl)-benzoxazole-6-carboxylate]
[1]
  FAP patients with improvement of symptoms: approximately 60%

## O=C(O)c1cc(-c2ccc(F)cc2F)cc(I)c1O [iododiflunisal, reference compound]
[2]
  displacement of T4 from TTR / binding affinity for TTR (increasing order, in words): iododiflunisal<tafamidis<AT09-B00
[3]
  tetramer to total protein ratio: 0.768
TTR V30M in human plasma
  tetramer to total protein ratio: 0.445
AD/TTR+/− mice
  brain Abeta levels and deposition, cognitive function: decreased brain Aβ levels and deposition; also recorded: decreased brain Abeta levels and deposition

## Cc1c(C(=O)O)coc1/C=C/c1ccc(Cl)o1 [AT09-B00, (E)-5-(2-(5-chlorofuran-2-yl)vinyl)-4-methylfuran-3-carboxylic acid]
WT-TTR; read-out: Kd1
  Kd: 0.0035 µM
WT-TTR; read-out: Kd2
  Kd: 0.357 µM
[2]; band intensity
  specificity for TTR versus TBG and albumin (in words): small difference in band intensity for TBG and albumin
[2]
  displacement of T4 from TTR / binding affinity for TTR (increasing order, in words): iododiflunisal<tafamidis<AT09-B00; also recorded: at least comparable to the current drug
[3]
  tetramer to total protein ratio: 0.961
TTR V30M in human plasma
  tetramer to total protein ratio: 0.481
[4]
  toxicity for HepG2 cells (in words): relatively low toxicity for HepG2 cells
[5]
  IEI (inhibition efficiency index): 22.6
  ILE (inhibition lipophilic efficiency): 2.77
  inhibition of amyloid fibril formation by TTR (in words): approaching the high levels of activity of 2OH—PCB80
  pIC50: 5.69
  IC50: 2.02 µM

## Oc1c(Cl)cc(-c2cc(Cl)c(O)c(Cl)c2)cc1Cl [Compound 2OH-PCB80, reference compound]
[4]
  ID50: 19.4 μg/mL and 60 μM
[5]
  IEI (inhibition efficiency index): 18.0
  ILE (inhibition lipophilic efficiency): 0.37
  pIC50: 5.80
  IC50: 1.59 µM

## Cc1oc(CSCc2cc(C(=O)O)c(C)o2)cc1C(=O)O [AT09-A00, bis((3-carboxy-2-methyl-furan-5-yl)methyl)sulfane]
[5]
  inhibition of amyloid fibril formation by TTR (in words): lower inhibitory activity than tafamidis and thyroxine
  IC50: 7.1 µM

## O=C(O)c1ccc2nc(-c3cc(Cl)cc(Cl)c3)oc2c1 [Tafamidis]
[2]
  displacement of T4 from TTR / binding affinity for TTR (increasing order, in words): iododiflunisal<tafamidis<AT09-B00
[4]
  ID50: 76.1 μg/mL and 247 μM
[4]; listed as tafamidis
  ID50: more than 75 μg/mL
[1]
  FAP patients with improvement of symptoms: approximately 60%

## (E)-5-(2-(5-chlorofuran-2-yl)vinyl)-1-methylfuran-3-carboxylic acid [AT09-B06]
WT-TTR; read-out: Kd1
  Kd: 0.0039 µM
WT-TTR; read-out: Kd2
  Kd: 0.278 µM
[4]
  toxicity for HepG2 cells (in words): relatively low toxicity for HepG2 cells
[5]
  IEI (inhibition efficiency index): 22.3
  ILE (inhibition lipophilic efficiency): 2.99
  inhibition of amyloid fibril formation by TTR (in words): stronger inhibition
  pIC50: 5.60
  IC50: 2.49 µM
